From US6582961B1, “Methods of protecting plants from pathogens” (priority 1998, dated 2003) come the findings set out here.

Common to all, as to type: in vivo, Phaseolus vulgaris
Test [1] deals with phenylalanine ammonia lyase (PAL) mRNA. As to the kind of experiment: Northern blot of phenylalanine ammonia lyase (PAL) mRNA in sprayed bean plants. The protocol: FIG. 2 is a northern blot of RNA probed for expression of phenylalanine ammonia lyase (“PAL”). RNA was extracted from 14 day-old red kidney bean plants 24 hours after leaves of the plants were sprayed until wet with one of four treatments. Lane 1: water-only control. Lane 2: treatment with 3,500 ppm of PAA. Lane 3: treatment with 10,000 ppm of PAA. Lane 4: treatment with 3,500 ppm of PAA plus 200 ppm of inducer mixture.
Bean plants were grown and treated in the same manner as in the previous Example, except that a water-only control was run, but not a test of systemic inducer without PAA. Total RNA was extracted and gels were loaded, run, and analyzed following the procedures discussed in previous Example, with the exception that no lane was run containing RNA from plants sprayed with a systemic inducer without an ROS present. Probe for PAL mRNA transcripts was prepared following the procedures set forth in Blee, K. A., and Anderson, A. J. “Defense-related transcript accumulation in Phaseolus vulgaris L. colonized by the arbuscular mycorrhizal fungus Glomus intraradices Schenck & Smith.” Plant Physiol. 110: 675-688 (1996).

Test [2] has as its system hydroxyproline-rich glycoprotein (HYP) RNA. As to the kind of experiment: Northern blot of hydroxyproline-rich glycoprotein (HYP) RNA in sprayed bean plants. The protocol:
FIG. 3 is a northern blot of RNA probed for expression of hydroxyproline-rich glycoproteins (“HPRG” or “HYP”). RNA was extracted from 14 day-old red kidney bean plants 24 hours after leaves of the plants were sprayed until wet with one of five treatments. Lane 1: water-only control. Lane 2: treatment with 3,500 ppm of PAA. Lane 3: treatment with 10,000 ppm of PAA. Lane 4: treatment with 3,500 ppm of PAA plus 200 ppm of inducer mixture. Lane 5: treatment with 10,000 ppm of PAA plus 200 ppm of inducer mixture. Lane 6: treatment with 200 ppm of inducer mixture, without presence of PAA.
Bean plants were grown and treated as in Example 2. Total RNA was extracted and gels were loaded, run, and analyzed following the procedures discussed in Example 2. Probes for HYP were prepared following the procedures set forth in Blee and Anderson, supra.

The subject of test [3] is PR-1a gene RNA expression. In words: Northern blot of PR-1a RNA in sprayed red kidney bean plants. Here is the method: FIG. 1 is a northern blot of RNA probed for expression of PR-1a protein. RNA was extracted from 14 day-old red kidney bean plants 24 hours after leaves of the plants were sprayed until wet with one of five treatments. Lane 1: treatment with 3,500 ppm of peracetic acid (“PAA”). Lane 2: treatment with 10,000 ppm of PAA. Lane 3: treatment with 3,500 ppm of PAA plus 200 ppm of salicylic acid/humic acid mixture (see Example 1; hereafter “inducer mixture”). Lane 4: treatment with 10,000 ppm of PAA and 200 ppm of inducer mixture. Lane 5: treatment with 200 ppm inducer mixture, without PAA.
Fourteen-day old red kidney bean plants (Phaseolus vulgaris) were sprayed from an overhead boom until the leaves were wet and spray began to run off them. […]
The plants were then left for 24 hours, after which the leaves were subjected to extraction of their total RNA by the procedure described in Logemann, J., et al, “Improved method for the isolation of RNA from plant tissues.” Anal Biochem. 163:16-20 (1987). […] Hybridization was observed and analyzed by chemiluminescent detection of the bound probes using the “Genius System,” (Boehringer Mannheim Corporation, Indianapolis, Ind.), following the manufacturer's directions. […]

For `CC(=O)OO` [peracetic acid], the “mRNA for PAL genes” value is reported as “increase in mRNA for PAL genes over that of the water control” in test [1] (peracetic acid 3,500 ppm, 24 hours, FIG. 2 lane 2) and “substantial increase” in test [1] (peracetic acid 10,000 ppm, compared to 3,500 ppm, FIG. 2 lane 3). Also, the “RNA levels from HYP genes” value in test [2] (peracetic acid 3,500 ppm, FIG. 3 lane 2) is “increase in RNA levels from HYP genes over that of the water control”; in test [2] (peracetic acid 10,000 ppm, compared to 3,500 ppm, FIG. 3 lane 3), “substantially more hybridizing RNA”. Moreover, the “PR-1a gene RNA expression” value was “increased” in test [3] (peracetic acid 3,500 ppm, leaves sprayed, RNA after 24 hours, FIG. 1 lane 1) and “higher amounts” in test [3] (peracetic acid 10,000 ppm, 24 hours, FIG. 1 lane 2).
